Results as given in US4888347A, “Use of specific N-methyl-D-aspartate receptor antagonists in the prevention and treatment of neurodegeneration” (Merck Sharp & Dohme Limited, priority 1986, dated 1989).
Like-named read-outs stand apart in the source and are kept apart here.

Experiments:
[1] = molecular target: N-methyl-D-aspartate (NMDA) receptors ([3H]-MK-801 binding); experiment: Displacement of [3H]-MK-801 binding, crude synaptosomal membrane fraction (P2) from rat cerebral cortex; settings: displacement of [3H]-MK-801, rat cerebral cortex membranes
Experimental: The compounds useful in the novel method of treatment of this invention bind with a high affinity and in a reversible and saturable manner to membranes from rat brain cortex. In addition these useful compounds potently and selectively block responses to NMDA in a brain slice from rate cortex, the antagonism apparently being non-competitive.
Binding of [^3 H]-MK-801 to rat brain in vitro was conducted in a crude synaptosomal membrane fraction (P2) prepared from rat cerebral cortex according to a modified method of Hulme et al, Molecular Pharmocology 14, 737-750 (1978).

[2] = system: NMDA responses of cortical neurons (NMDA receptor); experiment: Rat cortical slice, responses to NMDA; format: cell-based; settings: read-out: Apparent Potency as NMDA Antagonist Kb
Experimental: (§1) The effects of MK-801 and its analogs on responses to NMDA and quisqualate were assessed using the rat cortical slice as described by Harrison et al., Brit. J. Pharmacol, 84, 381-391 (1985). Cortical neurons in this preparation are depolarized by bath applications of NMDA. MK-801 produces a dose dependent depression of NMDA responses with a threshold dose of about 100 nM and complete suppression of responses at 1 μM.
The apparent potencies of MK-801 and its analogs are shown in Table IV; they correlate closely with results from [^3 H]-MK-801 binding studies.

[3] = system: gerbil hippocampus calcium levels; experiment: Prevention of increases in calcium levels in gerbil hippocampus following bilateral artery occlusion; format: in vivo
Excerpt: (d) The neuroprotective activity of compounds for use in accordance with the invention has also been determined by measuring the ability of the compounds to prevent increases in calcium levels in the gerbil hippocampus following bilateral artery occlusion.

[4] = system: gerbils (neuronal damage in the hippocampus); experiment: Gerbil right carotid artery occlusion 10 minutes, repeated MK-801 dosing, neuronal damage in hippocampus; format: in vivo; settings: 1 mg/kg i.p. one hour before, then 1, 3, 5, 10 and 15 hours following 10 min occlusion
Experimental: (b) The right carotid artery of gerbils was occluded for 10 minutes and MK-801 at a dose of 1 mg/kg (i.p.) administered one hour before, then 1, 3, 5, 10 and 15 hours following occlusion. The animals were allowed to survive for 4 days and the extent of neuronal damage in the hippocampus was assessed.

responses to kainate = experiment: Rat cortical slice, responses to kainate; format: cell-based; settings: doses of up to 30 μM
responses to quisqualate [5] = experiment: Rat cortical slice, responses to quisqualate; format: cell-based; settings: doses of up to 30 μM
Experimental: as §1

[6] = system: gerbils (neuronal degeneration in the hippocampus); experiment: Gerbil ischaemia, 10 minute unilateral carotid artery occlusion, neuronal degeneration in hippocampus; format: in vivo; settings: 10 min occlusion
Experimental: (§2) (a) Ischaemia was induced in gerbils by 10 or 30 minute unilateral occlusion of the carotid artery. Restoration of blood flow after occlusion was checked visually and the animals were allowed to survive for 4 days. The extent of neuronal degeneration in the hippocampus was assessed. Test animals were treated by administering MK-801 at doses of 1 and 10 mg/kg (i.p.) one hour prior to artery occulsion.

[7] = system: gerbils (neuronal degeneration in the hippocampus); experiment: Gerbil ischaemia, 5 minute occlusion of both carotid arteries, neuronal degeneration in hippocampus; format: in vivo
Experimental: (c) Ischaemia was induced in gerbils by 5 minute occlusion of both carotid arteries. Restoration of blood flow after occlusion was checked visually and the animals allowed to survive for 4 days. The extent of neuronal degeneration in the hippocampus was measured. Test animals were treated by administering MK-801 at doses of 1, 3 and 10 mg/kg (i.p.) one hour prior to occlusion.

responses to quisqualate [8] = experiment: Cortical slices from rats pretreated with MK-801, responses to quisqualate; format: in vivo, rat; settings: slices from rats pretreated 1 mg/kg i.p. 2 hours before sacrifice
Experimental: (§3) The responses to NMDA and quisqualate were examined on cortical slices from 4 rats which had been pretreated with MK-801 (1 mg/kg, i.p) 2 hours before they were sacrificed. Responses to NMDA were markedly depressed resulting in a shift to the right of the NMDA dose-response curve of approximately 2.4 fold when compared to the mean NMDA dose-response curved from untreated animals.

gerbils = experiment: Gerbil ischaemia, 30 minute unilateral carotid artery occlusion, survival; format: in vivo; settings: 30 min occlusion
Experimental: as §2

[9] = system: NMDA receptor mediated events on central neurons; experiment: Cortical slices from rats pretreated with MK-801, responses to NMDA; format: in vivo, rat; settings: slices from rats pretreated 1 mg/kg i.p. 2 hours before sacrifice, vs untreated animals
Experimental: as §3

[10] = Table I, read-out: Displacement potencies Ki
[11] = Table II, read-out: Displacement potencies Ki

Row | Structure (SMILES) | Ki [1, 10] [nM] | Kb [2] [nM] | other results
1 | CC12NC(Cc3ccc(Cl)cc31)c1ccccc12 [L-641,294] | 10 | 50 | 
2 | CCCC12NC(Cc3ccccc31)c1ccccc12 [L-639,470] | 8600 | 3000 | 
3 | CC12NC(Cc3ccccc31)Cc1ccccc12 [L-638,204] |  | 310 | Ki [1, 11]: 140 nM
4 | CC12NC(Cc3ccccc31)c1ccc(Br)cc12 [L-639,442] | 180 | 400 | 
5 | CCC12NC(Cc3ccccc31)c1ccccc12 [L-639,057] | 50 | 500 | 
6 | CN1C2(C)c3ccccc3C1(C)c1cc(C(F)(F)F)ccc12 [L-631,922] |  |  | Ki ([1]; Table III, read-out: Ki): 109000 nM
7 | CC12NC(Cc3ccccc31)c1ccc(Cl)cc12 [L-641,368] | 80 | 1000 | 
8 | CC12NC(Cc3ccccc31)c1ccccc12 (single isomer, unassigned) [L-640,690] | 320 | 300 | 
9 | CN1C2(C)Cc3ccccc3C1(C)c1ccccc12 [L-640,688] | 710 | 870 | 
10 | CC12c3ccccc3C(C)(c3ccccc31)N2C1CC1 [L-632,938] |  | 640 | Ki ([1]; Table III, read-out: Ki): 4000 nM
11 | CN1C2Cc3ccccc3C1c1ccccc12 [L-638,276] | 11900 |  | 
12 | CC12NC(Cc3ccc(Br)cc31)c1ccccc12 [L-639,441] | 20 | 1000 | 
13 | COc1ccc2c(c1)C1Cc3ccccc3C2(C)N1 [L-641,086] | 40 |  | 
14 | CN1C2Cc3ccccc3C1(C)c1ccccc12 [L-638,275] | 830 |  | 
15 | CN1C2Cc3ccccc3C1(C)c1ccccc1C2 [L-637,686] |  | 2000 | Ki [1, 11]: 1200 nM
16 | COc1ccc2c(c1)CC1NC2(C)c2ccccc21 [L-641,074] | 605 |  | 
17 | C=CCN1C2Cc3ccccc3C1(C)c1ccccc12 [L-639,015] | 3400 | 3100 | 

Row | Structure (SMILES) | Ki [1, 10] [nM] | Kb [2] [nM] | other results
18 | Clc1ccc2c(c1)C1NC(Cc3ccccc31)C2 [L-639,450] |  |  | Ki [1, 11]: 150 nM
19 | CCCN1C2Cc3ccccc3C1(C)c1ccccc12 [L-645,156] | 450 |  | 
20 | CCCCN1C2(C)c3ccccc3C1(C)c1ccccc12 [L-633,744] |  | 470 | Ki ([1]; Table III, read-out: Ki): 390 nM
21 | CN1C2(C)c3ccccc3C1(C)c1cc(C#N)ccc12 [L-633,239] |  |  | Ki ([1]; Table III, read-out: Ki): 31300 nM
22 | OCCC12NC(Cc3ccccc31)c1ccccc12 [L-639,902] | 260 | 200 | 
23 | CC12NC(Cc3ccccc31)c1ccc(O)cc12 [L-665,039] | 20 | 130 | Depression of Hippocampal [Ca^2+] Relative Potency (MK-801 = 1) [3]: 0.8
24 | CC12NC(Cc3ccccc31)c1cc(O)ccc12 [L-641,285] | 50 | 100 | 
25 | CN1C2Cc3ccccc3C1(C)c1ccccc12 [L-645,114] | 509 |  | 
26 | CN1C2c3ccccc3C1(C)c1ccccc12 [L-631,876] |  |  | Ki ([1]; Table III, read-out: Ki): 6930 nM
27 | CN1C2(C)c3ccccc3C1(C)c1ccccc12 [L-627,891] |  | 1130 | Ki ([1]; Table III, read-out: Ki): 220 nM
28 | CC12NC(Cc3ccccc31)c1ccccc12 [L-637,939] | 560 | 90 | 
29 | CC12NC(Cc3ccccc31)c1ccccc12 (single isomer, unassigned) [L-640,689, 5-methyl-10,11-dihydro-5H-dibenzo[a,d]cyclohepten-5,10-imine] | 40 |  | Number of animals showing damage [4]: 1; Number undamaged [4]: 8; effect on responses to kainate (responses to kainate): totally unaffected; effect on responses to quisqualate (responses to quisqualate [5]): totally unaffected; ED50 ([3]; Meriones unguiculatus, read-out: Depression of Hippocampal [Ca^2+] IC50): ~0.1 mg/kg; Number of animals showing damage ([6]; 1 mg/kg i.p. one hour prior): 4; Number undamaged ([6]; 1 mg/kg i.p. one hour prior): 11; Number of animals showing damage ([6]; 10 mg/kg i.p. one hour prior): 3; Number undamaged ([6]; 10 mg/kg i.p. one hour prior): 12; Percentage of animals with full protection ([7]; 1 mg/kg i.p. one hour prior to 5 min bilateral occlusion): 60; Percentage of animals with full protection ([7]; 3 mg/kg i.p. one hour prior to 5 min bilateral occlusion): 80; Percentage of animals with full protection ([7]; 10 mg/kg i.p. one hour prior to 5 min bilateral occlusion): 70; effect on responses to quisqualate (responses to quisqualate [8]): much less affected with only the highest dose slightly depressed; Number dead (gerbils; 1 mg/kg i.p. one hour prior): 4; Number of animals surviving (gerbils; 1 mg/kg i.p. one hour prior): 11; Number dead (gerbils; 10 mg/kg i.p. one hour prior): 1; Number of animals surviving (gerbils; 10 mg/kg i.p. one hour prior): 14; shift to the right of the NMDA dose-response curve [9]: approximately 2.4 fold
30 | CC12c3ccccc3CC(c3ccccc31)N2CCO [L-641,042] | 12800 |  | 
31 | CCC12NC(Cc3ccccc31)Cc1ccccc12 [L-639,420] |  | 200 | Ki [1, 11]: 120 nM
32 | CCCN1C2(C)c3ccccc3C1(C)c1ccccc12 [L-633,170] |  | 300 | Ki ([1]; Table III, read-out: Ki): 350 nM
33 | CC12NC(Cc3cc(O)ccc31)c1ccccc12 [L-641,291] | 340 | 510 | Depression of Hippocampal [Ca^2+] Relative Potency (MK-801 = 1) [3]: 1
